Molecular target: T1, endothelial lipase (EL) (Homo sapiens, UniProt Q9Y5X9)
T1 construct: made in house; host or cells: recombinant cell lines (CHO, HEK293); concentrated conditioned medium used as enzyme solution
T1 sequence (Q9Y5X9 21-500): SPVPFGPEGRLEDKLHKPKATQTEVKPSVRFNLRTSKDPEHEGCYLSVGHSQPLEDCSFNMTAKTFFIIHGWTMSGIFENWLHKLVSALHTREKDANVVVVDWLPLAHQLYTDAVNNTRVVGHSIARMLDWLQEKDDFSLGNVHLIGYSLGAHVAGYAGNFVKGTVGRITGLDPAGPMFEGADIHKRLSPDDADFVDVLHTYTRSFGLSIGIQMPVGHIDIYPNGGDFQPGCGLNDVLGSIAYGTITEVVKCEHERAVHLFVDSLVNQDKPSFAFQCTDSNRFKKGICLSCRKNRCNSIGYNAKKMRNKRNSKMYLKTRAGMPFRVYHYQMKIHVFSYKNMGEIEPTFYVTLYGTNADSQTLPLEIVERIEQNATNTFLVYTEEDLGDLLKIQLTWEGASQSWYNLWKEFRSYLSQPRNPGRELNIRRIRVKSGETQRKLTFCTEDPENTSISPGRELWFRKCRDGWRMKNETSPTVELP
Assay: Further EL inhibition assay
Format: biochemical
Details: Bodipy-labelled phospholipid substrate, 37° C., 90 minutes, HPTLC fluorescence readout; EL from conditioned medium of recombinant cell lines (CHO, HEK293)
Excerpt: EL is released as secretory protein in high concentration into cell culture medium (conditioned medium) by recombinant cell lines (CHO, HEK293). This is employed as enzyme solution after concentration.
The phospholipase-specific substrate 1,2-bis(4,4-difluoro-5,7-dimethyl-4-bora-3a,4a-diaza-s-indacene-3-undecanoyl)-sn-glycero-3-phosphocholine, (manufacturer Molecular Probes) is used to characterize the enzymatic activity of endothelial lipase and the effect of inhibitors. Hydrolysis of the A1 ester linkage of this phospholipid by the enzyme liberates the fluorescent dye Bodipy which can be detected after separation by thin-layer chromatography on an HPTLC plate (silica gel 60, Merck) or directly in the reaction vessel by measuring the fluorescence.
The substrate solution is prepared by dissolving 100 μg of 1,2-bis(4,4-difluoro-5,7-dimethyl-4-bora-3a,4a-diaza-s-indacene-3-undecanoyl)-sn-glycero-3-phospho-choline (manufacturer Molecular Probes) in 100 μl of DMSO and taking up in 2.4 mg of tripalmitin (Sigma) in 393 μl of chloroform which comprises 20 mg/ml DOP-choline (1,2-dioleoyl-sn-glycero-3-phosphocholine). 39.3 μl of this lipid mixture are transferred into a fresh reaction vessel, and the solvent is evaporated off. The lipid mixture is dissolved in 4 ml of 200 mM TRIS-HCl, 150 mM sodium chloride, pH=7.4, by sonication twice. The subsequent enzymic reaction takes place at 37° C. for 90 minutes. For this purpose, 20 μl of the substrate solution are incubated with 2 μl of inhibitor of appropriate concentration (dissolved in 10% DMSO, using 10% strength DMSO solution for control) and 2 μl of enzyme solution (conditioned medium). The 4 μl of the assay mixture are loaded onto an HPTLC plate (silica gel 60, Merck), and the liberated fluorescent dye is separated for detection with an eluent (diethyl ether:petroleum benzine:acetic acid [78:22:1]). After evaporation of the eluent, the plate is read in a fluorescence scanner. An increased liberation of the fluorescent dye in the uninhibited reaction is to be observed as a measure of the enzymic activity.

Row | Structure (SMILES) | IC50 [µM]
1 | CCCCCCNC(=O)n1c(=O)oc2cc(C(C)=O)ccc21 [Example 3, 6-Acetyl-2-oxobenzooxazole-3-hexylcarboxamide] | 0.06
2 | Cc1ccccc1CNC(=O)n1c(=O)oc2ccccc21 [Example 5, 2-Oxobenzooxazole-3-(2-methylbenzyl)carboxamide] | 0.95
3 | CC(=O)c1ccc2c(c1)oc(=O)n2C(=O)NCc1ccccc1 [Example 1, 6-Acetyl-2-oxobenzooxazole-3-benzylcarboxamide] | 0.13
4 | CC(=O)c1ccc2c(c1)oc(=O)n2C(=O)NCc1ccccc1C [Example 2, 6-Acetyl-2-oxobenzooxazole-3-(2-methylbenzyl)carboxamide] | 0.51
5 | O=C(NCc1ccccc1)n1c(=O)oc2ccc(Cl)cc21 [Example 7, 5-Chloro-2-oxobenzooxazole-3-benzylcarboxamide] | 0.23

Source: patent US7709513B2, “Benzooxazol-2-one derivatives as lipase and phospholipase inhibitors” (Sanofi-Aventis, priority 2005, dated 2010)
